Data from US8173689B2 (Novartis AG, priority 2006, dated 2012).
Like-named read-outs stand apart in the source and are kept apart here.

What was measured:
[1] = molecular target: T1, kinase domain of PDGFRβ (Homo sapiens, UniProt P09619); test: Inhibition of PDGFRb kinase signaling in an in vitro biochemical assay (alphascreen); conditions: tested at about 1 μM; read-out: PDGFRβ percent inhibition
T1 construct: The kinase domain of PDGFRβ was assayed in 50 mM Hepes; purchased Invitrogen P3082

[2] = molecular target: T2, cytoplasmic domain of the human CSF-1R (Homo sapiens, UniProt P07333); test: In vitro kinase assay for colony stimulating factor-1 receptor (AlphaScreen); type: biochemical; conditions: tested at about 1 μM; read-out: CSF-1R percent inhibition
T2 construct: Recombinant protein corresponding to the cytoplasmic domain of the human CSF-1R; purchased Invitrogen Corporation, Carlsbad, Calif; PV3249
T2 sequence (P07333 539-972 limits assumed): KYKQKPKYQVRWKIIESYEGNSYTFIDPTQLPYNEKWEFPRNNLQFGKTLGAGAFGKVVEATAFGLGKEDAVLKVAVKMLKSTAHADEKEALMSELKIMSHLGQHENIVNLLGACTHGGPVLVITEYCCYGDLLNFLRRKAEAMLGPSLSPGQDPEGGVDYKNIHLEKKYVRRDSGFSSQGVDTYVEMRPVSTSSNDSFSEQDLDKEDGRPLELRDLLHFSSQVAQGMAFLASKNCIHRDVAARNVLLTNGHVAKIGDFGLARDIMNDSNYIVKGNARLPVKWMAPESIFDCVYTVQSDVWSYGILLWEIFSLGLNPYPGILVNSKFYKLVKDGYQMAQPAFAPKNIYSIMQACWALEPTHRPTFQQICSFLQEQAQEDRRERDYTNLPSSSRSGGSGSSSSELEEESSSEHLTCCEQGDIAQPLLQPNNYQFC
How it was run: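 AlphaScreen read-out (PT66 anti-pTyr acceptor beads, streptavidin donor beads, overnight incubation) measured phosphorylated peptide product. The product was formed by the human CSF-1R cytoplasmic domain at 4 nM with 1 µM ATP in Mg2+/Mn2+ HEPES buffer, pH 7.5. Compound dilution series were 3-fold, starting at 25 µM.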

[3] = tested on: MNFS60 (murine AML cells); test: Cell viability assay in MCSF dependent MNFS60 cells (Cell Titer Glo); type: cell-based; conditions: Mus musculus, tested at about 1 μM, read-out: M-NFS-60 CP percent inhibition
How it was run: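 EC50 values reflect MCSF-driven (10 ng/ml final) proliferation over 72 hrs at 37° C., read by CellTiter-Glo. Each condition was run in triplicate.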

[4] = molecular target: T3, full-length human CSF-1R receptor (Homo sapiens, UniProt P07333); test: In vitro inhibition of CSF-1R receptor tyrosine phosphorylation in transfected HEK293H cells stimulated with MCSF; type: cell-based; conditions: HEK293-H, tested at about 1 μM; HEK293H cells; read-out: pCSF1R percent inhibition
T3 construct: transfected with the full-length human CSF-1R receptor cloned in house; expressed in transfected cells; host or cells: HEK293H (Invitrogen Cat. #11631017)
Procedure: The lysate was then transferred to total CSF-1R antibody coated 96-well plates that had already been blocked with 3% Blocker A from Mesoscale discovery (MSD) for 2 hours and washed afterwards. Lysates were incubated overnight at 4° C. and the plates were then washed 4× with MSD Tris Wash Buffer. […] The plates were read on the Sector 6000 instrument (MSD). Raw data was imported in Abase and EC50s calculated with XL-fit data analysis software.

[5] = molecular target: T4, kinase domain of cKIT (Homo sapiens, UniProt P10721); test: Inhibition of cKIT kinase signaling in an in vitro biochemical assay (alphascreen); conditions: tested at about 1 μM; read-out: cKit percent inhibition
T4 construct: The kinase domain of cKIT was assayed in 50 mM Hepes; purchased Upstate 14-559
T4 sequence (P10721 589-937 limits assumed): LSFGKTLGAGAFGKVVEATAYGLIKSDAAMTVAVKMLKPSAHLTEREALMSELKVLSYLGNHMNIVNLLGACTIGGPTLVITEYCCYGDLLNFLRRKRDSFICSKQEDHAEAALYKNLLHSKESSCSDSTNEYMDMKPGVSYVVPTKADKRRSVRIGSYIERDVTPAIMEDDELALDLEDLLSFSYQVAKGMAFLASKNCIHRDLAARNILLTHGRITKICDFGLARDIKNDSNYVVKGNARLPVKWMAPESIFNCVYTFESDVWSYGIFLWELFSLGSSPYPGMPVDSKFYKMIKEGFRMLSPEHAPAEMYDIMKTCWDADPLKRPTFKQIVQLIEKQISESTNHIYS

T1 sequence (P09619 600-962 limits assumed): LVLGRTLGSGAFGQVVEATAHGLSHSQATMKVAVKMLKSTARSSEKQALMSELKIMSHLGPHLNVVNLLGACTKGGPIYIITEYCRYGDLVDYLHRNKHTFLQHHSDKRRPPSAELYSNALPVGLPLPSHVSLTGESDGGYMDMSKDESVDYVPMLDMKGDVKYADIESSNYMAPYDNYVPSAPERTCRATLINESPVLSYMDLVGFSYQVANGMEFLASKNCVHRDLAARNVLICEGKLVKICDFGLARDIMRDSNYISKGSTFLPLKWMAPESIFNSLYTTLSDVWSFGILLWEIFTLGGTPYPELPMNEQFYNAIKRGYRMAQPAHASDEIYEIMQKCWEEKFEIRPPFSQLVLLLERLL
T3 sequence (P07333 20-972): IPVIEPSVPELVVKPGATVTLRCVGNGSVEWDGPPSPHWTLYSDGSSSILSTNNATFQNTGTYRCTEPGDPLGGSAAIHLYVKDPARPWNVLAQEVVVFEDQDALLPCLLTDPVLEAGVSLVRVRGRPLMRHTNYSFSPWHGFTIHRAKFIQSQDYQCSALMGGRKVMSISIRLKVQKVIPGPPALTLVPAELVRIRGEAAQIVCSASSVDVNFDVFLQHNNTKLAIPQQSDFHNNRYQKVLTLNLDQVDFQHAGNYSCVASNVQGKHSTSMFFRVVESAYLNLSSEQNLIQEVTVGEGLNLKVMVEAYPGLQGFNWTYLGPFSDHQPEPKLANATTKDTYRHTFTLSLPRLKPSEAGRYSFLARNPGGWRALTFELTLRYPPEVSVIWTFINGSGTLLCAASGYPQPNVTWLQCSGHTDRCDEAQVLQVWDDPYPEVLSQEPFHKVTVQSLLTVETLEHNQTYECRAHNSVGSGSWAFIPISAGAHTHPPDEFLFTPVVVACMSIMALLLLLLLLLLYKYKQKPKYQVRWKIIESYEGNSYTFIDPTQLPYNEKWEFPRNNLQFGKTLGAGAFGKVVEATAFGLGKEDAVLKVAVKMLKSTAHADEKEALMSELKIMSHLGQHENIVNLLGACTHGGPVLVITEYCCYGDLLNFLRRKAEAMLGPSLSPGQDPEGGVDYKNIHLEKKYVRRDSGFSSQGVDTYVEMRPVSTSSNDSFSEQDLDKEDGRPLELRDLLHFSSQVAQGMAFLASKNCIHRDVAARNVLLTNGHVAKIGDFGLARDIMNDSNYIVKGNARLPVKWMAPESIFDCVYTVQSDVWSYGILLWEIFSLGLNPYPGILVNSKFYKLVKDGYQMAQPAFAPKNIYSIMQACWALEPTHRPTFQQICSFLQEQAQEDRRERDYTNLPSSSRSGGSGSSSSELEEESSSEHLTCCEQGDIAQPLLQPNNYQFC

SMILES	inhibition at 1 µM [1]	inhibition at 1 µM [2]	inhibition at 1 µM ([3]; MNFS60 cells)	inhibition at 1 µM [4]	inhibition at 1 µM [5]	inhibition at 1 µM ([3]; MCSF dependent MNFS60 cells)
CNC(=O)c1cc(Oc2ccc3nc(NC[C@@H]4C[C@H]5CC[C@@H]4C5(C)C)oc3c2)ccn1 [Compound 15, 4-{2-[((1S,2R,4R)-7,7-Dimethyl-bicyclo[2.2.1]hept-2-ylmethyl)-amino]-benzooxazol-6-yloxy}-pyridin-2-carboxylic acid methylamide]	88%	100%	97%	92%		
CNC(=O)c1cc(Oc2ccc3nc(NC(C)c4cccc5c4OCCO5)oc3c2)ccn1 (stereo not drawn) [Compound 125, 4-{2-[1-(2,3-Dihydro-benzo-[1,4]dioxin-5-yl)-ethylamino]-benzooxazol-6-yloxy}-pyridine-2-carboxylic acid methylamide]	0%	100%	44%	45%	35%	
CNC(=O)c1cc(Oc2ccc3nc(N[C@@H]4c5ccccc5C[C@@H]4O)sc3c2)ccn1 [Example 323, 4-(2-((1R,2S)-2-hydroxy-2,3-dihydro-1H-inden-1-ylamino)benzo[d]thiazol-6-yloxy)-N-methylpicolinamide]	24%	100%		98%	25%	100%
CNC(=O)c1cc(Oc2ccc3nc(NCC4CCCCO4)sc3c2)ccn1 (stereo not drawn) [Example 370, N-methyl-4-(2-((tetrahydro-2H-pyran-2-yl)methylamino)benzo[d]thiazol-6-yloxy)picolinamide]	34%	100%		81%	64%	60%
CNC(=O)c1cc(Oc2ccc3nc(Nc4ccccc4CN4CCOCC4)oc3c2)ccn1 [Compound 25, 4-[2-(2-Morpholin-4-ylmethyl-phenylamino)-benzooxazol-6-yloxy]-pyridine-2-carboxylic acid methylamide]	7%	98%	42%	35%		
CNC(=O)c1cc(Oc2ccc3nc(NCc4ccc(Cl)cc4)oc3c2)ccn1 [Compound 27, 4-[2-(4-Chloro-benzylamino)-benzooxazol-6-yloxy]-pyridine-2-carboxylic acid methylamide]	28%	99%	97%	96%		
CNC(=O)c1cc(Oc2ccc3nc(N[C@H](C)c4cccc5ccccc45)oc3c2)ccn1 [Compound 18, 4-[2-((R)-1-Naphthalen-1-yl-ethylamino)-benzooxazol-6-yloxy]-pyridine-2-carboxylic acid methylamide]	35%	100%	91%	74%		
CNC(=O)c1cc(Oc2ccc3nc(NCc4ccccc4F)oc3c2)ccn1 [Compound 16, 4-[2-(2-Fluoro-benzylamino)-benzooxazol-6-yloxy]-pyridin-2-carboxylic acid methylamide]	20%	99%	25%	81%		
CC(=O)Nc1cc(Oc2ccc3nc(NCc4ccccc4Cl)oc3c2)ccn1 [Compound 32, N-{4-[2-(2-Chloro-benzylamino)-benzooxazol-6-yloxy]-pyridin-2-yl}-acetamide]	22%	100%	70%	93%		
CNC(=O)c1cc(Oc2ccc3nc(NCc4ccccc4)oc3c2)ccn1 [Compound 41, 4-(2-Benzylamino-benzooxazol-6-yloxy)-pyridine-2-carboxylic acid methylamide]	30%	100%	100%	94%		
CNC(=O)c1cc(Oc2ccc3nc(NCC4CCCCC4)oc3c2)ccn1 [Compound 21, 4-[2-(Cyclohexylmethyl-amino)-benzooxazol-6-yloxy]-pyridine-2-carboxylic acid methylamide]	0%	99%	55%	65%		
CNC(=O)c1cc(Oc2ccc3nc(NCc4ccccc4N(C)C)oc3c2)ccn1 [Compound 85, 4-[2-(2-Dimethylamino-benzylamino)-benzooxazol-6-yloxy]-pyridine-2-carboxylic acid methylamide]		99%	100%	98%	79%	
CNC(=O)c1cc(Oc2ccc3nc(N[C@H]4C[C@H]5C[C@@H]([C@@H]4C)C5(C)C)oc3c2)ccn1 [Compound 13, 4-[2-((1S,2S,3S,5R)-2,6,6-Trimethyl-bicyclo[3.1.1]hept-3-ylamino)-benzooxazol-6-yloxy]-pyridin-2-carboxylic acid methylamide]	65%	99%	76%	75%		
CNC(=O)c1cc(Oc2ccc3nc(N[C@H](C)c4ccccc4OC)oc3c2)ccn1 [Compound 31, 4-{2-[(R)-1-(2-Methoxy-phenyl)-ethylamino]-benzooxazol-6-yloxy}-pyridine-2-carboxylic acid methylamide]		100%	57%	79%	18%	
CNC(=O)c1cc(Oc2ccc3nc(NC4CCCC(C)C4)oc3c2)ccn1 (stereo not drawn) [Compound 10, 4-[2-(3-Methyl-cyclohexyl-amino)-benzooxazol-6-yloxy]-pyridine-2-carboxylic acid methylamide]	35%	99%	62%	79%		
CC(=O)Nc1cc(Oc2ccc3nc(NCC4CCCCC4)oc3c2)ccn1 [Compound 34, N-{4-[2-(Cyclohexylmethyl-amino)-benzooxazol-6-yloxy]-pyridin-2-yl}-acetamide]	89%	99%	68%	65%		
CNC(=O)c1cc(Oc2ccc3nc(NCc4cccc(Cl)c4)oc3c2)ccn1 [Compound 42, 4-[2-(3-Chloro-benzylamino)-benzooxazol-6-yloxy]-pyridine-2-carboxylic acid methylamide]	12%	99%	100%	97%		
CNC(=O)c1cc(Oc2ccc3nc(Nc4ccc(OC)cc4OC)oc3c2)ccn1 [Compound 28, 4-[2-(2,4-Dimethoxy-phenyl-amino)-benzooxazol-6-yl-oxy]-pyridine-2-carboxylic acid methylamide]	98%	99%	98%	88%		
COc1cc2nccc(Oc3ccc4nc(N[C@H](C)c5ccccc5)oc4c3)c2cc1OC [Compound 14, [6-(6,7-Dimethoxy-quinolin-4-yloxy)-benzooxazol-2-yl]-((R)-1-phenyl-ethyl)-amine]	85%	99%	56%	71%		
CNC(=O)c1cc(Oc2ccc3nc(NCc4cccc(OC)c4OC)oc3c2)ccn1 [Compound 91, 4-[2-(2,3-Dimethoxy-benzyl-amino)-benzooxazol-6-yloxy]-pyridine-2-carboxylic acid methylamide]		99%	87%	97%	93%	
CNC(=O)c1cc(Oc2ccc3nc(NCc4ccccc4N4CCOCC4)oc3c2)ccn1 [Compound 88, 4-[2-(2-Morpholin-4-yl-benzylamino)-benzooxazol-6-yloxy]-pyridine-2-carboxylic acid methylamide]		100%	100%	96%	98%	
